Target: T1, human CTPS1 (Homo sapiens, UniProt P17812)
T1 construct: purchased Proteros biostructures GmbH
T1 sequence (P17812 1-591): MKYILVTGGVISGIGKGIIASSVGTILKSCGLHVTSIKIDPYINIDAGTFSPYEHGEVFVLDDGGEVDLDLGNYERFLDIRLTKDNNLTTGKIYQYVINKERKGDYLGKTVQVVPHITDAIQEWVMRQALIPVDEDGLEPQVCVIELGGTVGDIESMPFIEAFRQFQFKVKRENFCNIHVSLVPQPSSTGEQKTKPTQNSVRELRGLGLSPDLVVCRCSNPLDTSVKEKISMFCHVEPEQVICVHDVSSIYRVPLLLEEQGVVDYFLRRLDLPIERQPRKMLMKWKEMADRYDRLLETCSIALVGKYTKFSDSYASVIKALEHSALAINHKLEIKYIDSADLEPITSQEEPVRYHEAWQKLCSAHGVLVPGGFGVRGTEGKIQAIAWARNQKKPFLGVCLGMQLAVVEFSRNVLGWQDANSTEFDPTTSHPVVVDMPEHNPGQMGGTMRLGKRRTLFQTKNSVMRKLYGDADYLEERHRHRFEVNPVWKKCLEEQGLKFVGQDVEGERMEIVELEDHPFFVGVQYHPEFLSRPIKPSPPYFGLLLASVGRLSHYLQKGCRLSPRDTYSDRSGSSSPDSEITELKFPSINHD
Test: Human CTPS1 enzyme inhibition (ADP-Glo Max assay)
Assay type: biochemical
Conditions: Table 23; ADP-Glo Max assay; read-out: CTPS1 (Human CTPS1 Enzyme Inhibition data grouped by potency range, IC50)
Experimental: Biological Example 1—Human CTPS1 Enzyme Inhibition
The enzyme inhibitory activities of compounds invented against the target of interest were determined using the ADP-Glo™ Max assay (Promega, UK). Assays for human CTPS1 were performed in 1× assay buffer containing 50 mM Tris, 10 mM MgCl2, 0.01% Tween-20, pH to 8.0 accordingly. Finally, immediately before use, L-cysteine was added to the 1× assay buffer to a final concentration of 2 mM. All reagents are from Sigma-Aldrich unless specified otherwise. Human full length active C-terminal FLAG-Hiss-tag CTPS1 (UniProtKB-P17812, CTPS[1-591]-[…]) was obtained from Proteros biostructures GmbH.
3× human CTPS1 protein was prepared in 1× assay buffer to the final working protein concentration required for the reaction. A 2 uL volume per well of 3× human CTPS1 protein was mixed with 2 uL per well of 3× test compound (compound prepared in 1× assay buffer to an appropriate final 3× compound concentration respective to the concentration response curve designed for the compounds under test) for 10 minutes at 25° C. The enzymatic reaction was then initiated by addition of a 2 uL per well volume of a pre-mixed substrate mix (UltraPure ATP from ADP-Glo™ Max kit (0.31 mM), GTP (0.034 mM), UTP (0.48 mM) and L-glutamine (0.186 mM)) and the mixture was incubated for an appropriate amount of time within the determined linear phase of the reaction at 25° C. under sealed plate conditions with constant agitation at 500 revolutions per minute (rpm). ADP-Glo™ Max reagent was added for 60 minutes (6 μL per well) and subsequently ADP-Glo™ Max development reagent was added for 60 minutes (12 uL per well) prior to signal detection in a microplate reader (EnVision® Multilabel Reader, Perkin Elmer). Following each reagent addition over the course of the assay, assay plates were pulse centrifuged for 30 seconds at 500 rpm.
In all cases, the enzyme converts ATP to ADP and the ADP-Glo™ Max reagent subsequently depletes any remaining endogenous ATP in the reaction system. The ADP-Glo™ Max detection reagent converts the ADP that has been enzymatically produced back into ATP and using ATP as a substrate together with luciferin for the enzyme luciferase, light is generated which produces a detectable luminescence. […] The percentage inhibition produced by each concentration of compound was calculated using the equation shown below: […]
Percentage inhibition was then plotted against compound concentration, and the 50% inhibitory concentration (IC50) was determined from the resultant concentration-response curve.

Structure (SMILES) | IC50 [nM]
CCOc1cncc(-c2ccc(NC(=O)C(F)(CC)c3ccnc(NS(C)(=O)=O)n3)nc2)n1 (single isomer, unassigned) [Example P165] | ≤ 100
CCOc1cncc(-c2ccc(C(=O)NC(CC)c3cncc(NS(=O)(=O)C4CC4)n3)c(F)c2)n1 (single isomer, unassigned) [Example P225] | ≤ 100
COc1cncc(-c2ccc(NC(=O)C(C)(C)c3ccnc(NS(=O)(=O)C4CC4)n3)cc2)n1 [Example P3, 2-(2-(cyclopropanesulfonamido)pyrimidin-4-yl)-N-(4-(6-methoxypyrazin-2-yl)phenyl)-2-methylpropanamide] | ≤ 100
CC(C)(C(=O)Nc1ccc(-c2cncc(C(F)(F)F)c2)cc1)c1ccnc(NS(=O)(=O)C2CC2)n1 [Example P4, 2-(2-(Cyclopropanesulfonamido)pyrimidin-4-yl)-2-methyl-N-(4-(5-(trifluoromethyl)pyridin-3-yl)phenyl)propanamide] | 100 to 1000
Cc1cncc(-c2ccc(NC(=O)C(C)(C)c3ccnc(NS(C)(=O)=O)n3)c(C)c2)n1 [Example P5, 2-Methyl-N-(2-methyl-4-(6-methylpyrazin-2-yl)phenyl)-2-(2-(methylsulfonamido)pyrimidin-4-yl)propanamide] | 1000 to 10000
O=C(Cc1ccnc(NS(=O)(=O)C2CC2)n1)Nc1ccc(-c2cncc(C(F)(F)F)n2)cc1 [Example P8, 2-(2-(Cyclopropanesulfonamido)pyrimidin-4-yl)-N-(4-(6-(trifluoromethyl)pyrazin-2-yl)phenyl)acetamide] | ≤ 100
CCOc1cncc(-c2ccc(NC(=O)C(CC)(CC)c3ccnc(NS(=O)(=O)C4CC4)n3)cc2)n1 [Example P10] | ≤ 100
O=C(Cc1ccnc(NS(=O)(=O)C2CC2)n1)Nc1ccc(-c2cncc(C(F)(F)F)n2)cc1F [Example P11] | ≤ 100
O=C(Cc1ccnc(NS(=O)(=O)C2CC2)n1)Nc1ccc(-c2cncc(C(F)(F)F)c2)cc1 [Example P13] | 100 to 1000
O=C(Cc1ccnc(NS(=O)(=O)C2CC2)n1)Nc1ccc(-c2cncc(OCC(F)(F)F)c2)cc1 [Example P14] | 100 to 1000
O=C(Cc1nc(NS(=O)(=O)C2CC2)ncc1F)Nc1ccc(-c2cccnc2)cc1 [Example P15] | 1000 to 10000
O=C(Cc1ccnc(NS(=O)(=O)C2CC2)n1)Nc1ccc(-c2ccccc2)cc1 [Example P17] | 1000 to 10000
COc1cncc(-c2ccc(NC(=O)Cc3ccnc(NS(=O)(=O)C4CC4)n3)cc2)n1 [Example P19] | ≤ 100
O=C(Cc1ccnc(NS(=O)(=O)C2CC2)n1)Nc1ccc(-c2cncc(OCC(F)(F)F)n2)cc1 [Example P20] | ≤ 100
CCOc1cncc(-c2ccc(NC(=O)C(C)(C)c3ccnc(NS(=O)(=O)C4CCC4)n3)nc2)n1 [Example P22] | 100 to 1000
CC(C)Oc1cncc(-c2ccc(NC(=O)C(C)(C)c3ccnc(NS(=O)(=O)C4CCC4)n3)c(F)c2)n1 [Example P23] | 100 to 1000
CCOc1cncc(-c2ccc(NC(=O)C(C)(C)c3ccnc(NS(=O)(=O)C4CCC4)n3)c(C)c2)n1 [Example P24] | 100 to 1000
COc1cncc(-c2ccc(NC(=O)C(C)(C)c3ccnc(NS(=O)(=O)C4CCC4)n3)cc2)n1 [Example P25] | 100 to 1000
CCOc1cncc(-c2ccc(NC(=O)C(C)(C)c3ccnc(NS(=O)(=O)C4CCC4)n3)cc2)n1 [Example P26] | 100 to 1000
CCOc1cncc(-c2cnc(NC(=O)C(C)(C)c3ccnc(NS(=O)(=O)C4CC4)n3)c(F)c2)n1 [Example P27] | ≤ 100
CCOc1cncc(-c2ccc(NC(=O)C(C)(C)c3ccnc(NS(=O)(=O)C4CC4)n3)nc2)c1 [Example P28] | 100 to 1000
CC(C)(C(=O)Nc1ccc(-c2cccnc2)cn1)c1ccnc(NS(=O)(=O)C2CC2)n1 [Example P29] | 1000 to 10000
CC(C)(C(=O)Nc1ccc(-c2cncc(C(F)(F)F)n2)cn1)c1ccnc(NS(=O)(=O)C2CC2)n1 [Example P30] | ≤ 100
CC(C)(C(=O)Nc1ccc(-c2cncc(OC3CC3)n2)cn1)c1ccnc(NS(=O)(=O)C2CC2)n1 [Example P32] | ≤ 100
CCOc1cncc(-c2ccc(NC(=O)C(C)(C)c3ccnc(NS(=O)(=O)C4CC4)n3)c(Cl)c2)n1 [Example P33] | ≤ 100

Structure (SMILES) | IC50 [nM]
CC(C)Oc1cncc(-c2ccc(NC(=O)C(C)(C)c3ccnc(NS(=O)(=O)C4CC4)n3)c(F)c2)c1 [Example P35] | 100 to 1000
CC(C)(C(=O)Nc1ccc(-c2cccnc2)cc1F)c1ccnc(NS(=O)(=O)C2CC2)n1 [Example P36] | 1000 to 10000
CC(C)(C(=O)Nc1ccc(-c2cncc(C(F)(F)F)n2)cc1F)c1ccnc(NS(=O)(=O)C2CC2)n1 [Example P37] | ≤ 100
CCOc1cncc(-c2cc(F)c(NC(=O)C(C)(C)c3ccnc(NS(=O)(=O)C4CC4)n3)cc2C)n1 [Example P40] | 100 to 1000
CCOc1cncc(-c2cc(F)c(NC(=O)C(C)(C)c3ccnc(NS(=O)(=O)C4CC4)n3)c(F)c2)n1 [Example P41] | ≤ 100
CC(C)(C(=O)Nc1ccc(-c2cnccn2)cc1F)c1ccnc(NS(=O)(=O)C2CC2)n1 [Example P42] | 1000 to 10000
Cc1cc(-c2cncc(C(F)(F)F)n2)ccc1NC(=O)C(C)(C)c1ccnc(NS(=O)(=O)C2CC2)n1 [Example P43] | 100 to 1000
CCOc1cncc(-c2ccc(NC(=O)C(C)(C)c3ccnc(NS(=O)(=O)C4CC4)n3)c(C)c2C)n1 [Example P44] | 100 to 1000
CCOc1cncc(-c2cc(C)c(NC(=O)C(C)(C)c3ccnc(NS(=O)(=O)C4CC4)n3)cc2F)n1 [Example P45] | 100 to 1000
CCOc1cncc(-c2cc(C)c(NC(=O)C(C)(C)c3ccnc(NS(=O)(=O)C4CC4)n3)cc2C)n1 [Example P46] | 100 to 1000
CCOc1cncc(-c2ccc(NC(=O)C(C)(C)c3ccnc(NS(=O)(=O)C4CC4)n3)c(OC(F)(F)F)c2)n1 [Example P47] | ≤ 100
CCOc1cncc(-c2cc(OC)c(NC(=O)C(C)(C)c3ccnc(NS(=O)(=O)C4CC4)n3)cc2F)n1 [Example P48] | 100 to 1000
CCOc1cncc(-c2ccc(NC(=O)C(C)(C)c3ccnc(NS(=O)(=O)C4CC4)n3)c(OC)c2)n1 [Example P49] | ≤ 100
CC(C)(C(=O)Nc1ccc(-c2cncnc2)cc1)c1ccnc(NS(=O)(=O)C2CC2)n1 [Example P50] | 1000 to 10000
CC(C)(C(=O)Nc1ccc(-c2cncc(Cl)c2)cc1)c1ccnc(NS(=O)(=O)C2CC2)n1 [Example P51] | 100 to 1000
CC(C)(C(=O)Nc1ccc(-c2cncc(C#N)c2)cc1)c1ccnc(NS(=O)(=O)C2CC2)n1 [Example P52] | 100 to 1000
CC(C)(C(=O)Nc1ccc(-c2cncc(F)c2)cc1)c1ccnc(NS(=O)(=O)C2CC2)n1 [Example P53] | 100 to 1000
Cc1cncc(-c2ccc(NC(=O)C(C)(C)c3ccnc(NS(=O)(=O)C4CC4)n3)cc2)c1 [Example P54] | 100 to 1000
CC(C)(C(=O)Nc1ccc(-c2cncc(OC(F)F)c2)cc1)c1ccnc(NS(=O)(=O)C2CC2)n1 [Example P55] | ≤ 100
COc1cncc(-c2ccc(NC(=O)C(C)(C)c3ccnc(NS(=O)(=O)C4CC4)n3)cc2)c1 [Example P56] | 100 to 1000
CCOc1cncc(-c2ccc(NC(=O)C(C)(C)c3ccnc(NS(=O)(=O)C4CC4)n3)cc2)c1 [Example P57] | 100 to 1000
CC(C)Oc1cncc(-c2ccc(NC(=O)C(C)(C)c3ccnc(NS(=O)(=O)C4CC4)n3)cc2)c1 [Example P58] | 100 to 1000
CC(C)(C(=O)Nc1ccc(-c2cccc(C(F)(F)F)c2)cc1)c1ccnc(NS(=O)(=O)C2CC2)n1 [Example P60] | 1000 to 10000
CC(C)(C(=O)Nc1ccc(-c2cccc(Cl)c2)cc1)c1ccnc(NS(=O)(=O)C2CC2)n1 [Example P61] | 1000 to 10000

Reference: patent publication US20230002352A1, “SULFONAMIDE DERIVATIVES AS CTPS1 INHIBITORS” (Step Pharma S.A.S., priority 2019, published 2023)
